In series [1] the test system is Planaria (Dugesia japonica). The series is described as follows: Planaria regeneration after surgical injury. It counts as in vivo. Here is the method: Planaria were surgically injured post-ocular and received either vehicle (0.1% ethanol) or 10 nM 4,5-RCTR1 one-hour post-injury and imaged daily for six days. A) Representative images of Planaria regeneration from Day 1-6 post-surgical injury. B) Tissue regeneration indices (μm) from Day 1-6 post-surgically injured Planaria. C) Tissue regeneration rate (TRR, μm/day) is the rate (area of tissue regeneration/days at TRI50) to achieve 50% tissue regeneration after surgical injury. n=6 Planaria per group per day. Data represented as mean±SEM. Unpaired two-tailed Student's t-test. *p<0.05, **p<0.01, ***p<0.001, and ****p<0.0001 versus vehicle. Planaria (Dugesia japonica) were kept in water (Poland Spring, Poland, ME) at 20° c. All animals were starved for 7 days prior to surgery. Planaria were surgically injured post-ocularly and received either vehicle (0.1% ethanol) or 10 nM 4,5-RCTR1 in water one-hour post-injury. Tissue regeneration was monitored daily for six days via a Zeiss Axiovert 40 CFL Microscope (Jena, Germany) equipped with a Lumenera Infinity 3 Camera (Ottawa, Canada) running Image-Pro Plus (Version 7.0.0.591, Media Cybernetics, Rockville, MD, USA). Regenerated tissue was quantified using ImageJ software (NIH). The tissue regeneration index (TRI) normalizes the total area of regenerated tissue by the post-ocular width. The TRI50 is the amount of time it takes to reach 50% of the maximum […]. […] FIGS. 2A, 2B and 2C: Planaria were surgically injured post-ocular and received either vehicle (0.1% ethanol) or 4,5-RCTR1 one-hour post-injury and imaged daily for six days. 2A) Representative images of Planaria regeneration from Day 1-6 post-surgical injury. 2B) Tissue regeneration indices (μm) from Day 1-6 post-surgically injured Planaria. 2C) Tissue regeneration rate (TRR, μm/day) is the rate (area of tissue regeneration/days at TRI50) to achieve 50% tissue regeneration after surgical injury. n=6 Planaria per group per day. Data represented as mean±SEM. Unpaired two-tailed Student's t-test. *p<0.05, **p<0.01, ***p<0.001, and ****p<0.0001 versus vehicle.

The subject of another series is human PBMCs. The series is described as follows: Granuloma assay: human PBMCs with E. coli total protein extract-coupled sepharose beads. In kind it is cell-based. The conditions noted are these: single treatment 10 nM at time 0; scoring 0-4 at day 3; versus vehicle. The protocol:
FIG. 3: Resolvin (Rv) Peptido-Lipids Delay Human Granuloma Formation. Freshly isolated human PBMCs were incubated with E. coli total protein extract covalently coupled CNBr-activated sepharose beads and received a single treatment of either vehicle (0.1% methanol or ethanol), 10 nM RvD3, 10 nM RCTR1, or 10 nM 4,5-RCTR1 at time 0 and incubated for 6 days. A) Scoring of day 3 granuloma severity post-single treatment with either vehicle (0.1% methanol or ethanol), 10 nM RvD3, 10 nM RCTR1, or 10 nM 4,5-RCTR1. n=3 individual human donors. Mean±SEM. Unpaired two-tailed Student's t-test. **p<0.01, ***p<0.001 versus vehicle. B) Representative images of granuloma formation on day 3 after a single treatment with either vehicle (0.1% methanol or ethanol), 10 nM RvD3, 10 nM RCTR1, or 10 nM 4,5-RCTR1. […]
E. coli (Serotype: 06:K2:H1) was grown overnight in Luria broth in an orbital shaker (400 rpm) at 37° C. […] Supernatant was taken before and after the coupling reaction and measured for protein content by BCA assay (Thermo Fisher Scientific) to determine the efficiency of the reaction. […]
Freshly isolated PBMCs (1×10^6 cells/well) were treated with either vehicle (0.1% ethanol), RvD3 (10 nM), RCTR1 (10 nM) or 4,5-RCTR1 (10 nM) and E. coli total protein lysate-coated CNBr-activated sepharose beads simultaneously in 1 mL complete RPMI-1640. […] Granulomas were scored based on formation progression. […]

Series [2] is described as follows: Half-life in the body (statement only, no method). To be noted: in vivo.

`CC/C=C\C[C@H](O)/C=C/C=C\C\C=C/C=C/C=C/[C@@H](SC[C@H](NC(=O)CC[C@H](N)C(=O)O)C(=O)NCC(=O)O)[C@@H](O)CCC(=O)O` [4,5-RCTR1, 5-glutathionyl, 4,17-hydroxy-docosahexaenoic acid]: in series [1] (in vivo), the “amount of tissue regenerated” value is listed as “increases the amount of tissue regenerated” and the “time required for tissue regeneration” value is “accelerates the time required for tissue regeneration”. Moreover, the “regenerative action / planaria regeneration” value in series [1] (surgically injured post-ocular, 10 nM one-hour post-injury, imaged daily for six days, versus vehicle) is on record as “regenerative action”. The granuloma formation result in the series with human PBMCs is listed as “significantly delays granuloma formation”. Besides, the “half-life in the body” value in series [2] was “relatively sort half-life”.

Values taken from patent publication US20230399295A1, “COMPOSITIONS FOR INCREASING TISSUE REGENERATION AND DELAYING OR REDUCING GRANULOMA FORMATION” (THE BRIGHAM AND WOMEN'S HOSPITAL, INC., priority 2020, published 2023).
